Experimental data from patent US20170121683A1, “ARYL HYDROCARBON RECEPTOR DISRUPTION AND ENHANCEMENT” (priority 2015, published 2017).

What was measured:
hESCs (H9) = experiment: Hemato-endothelial differentiation of hESCs, flow cytometry, fold change vs DMSO (Example 2); assay type: cell-based, human
Description: FIG. 7A. Schema of hESC differentiation into early hemato-endothelial cells as spin-embryoid bodies (spin-EBs). hESCs are made into spin-EBs at Day 0 and conditioned into mesoderm lineages for 6 days using defined cytokines (Stage 1). At Day 6, spin-EBs are transferred into hemato-endothelial culture media (Stage 2) to promote endothelial and hematopoietic cell differentiation. For these studies, cells are treated with either 1 μM SR-1, 10 nM TCDD, or DMSO vehicle control beginning at Day 6+0 with media exchanges and/or harvesting performed at Day 6+3, Day 6+6, and Day 6+9. FIG. 7B. Representative flow cytometry plots of one hESCs differentiation. Both adherent and non-adherent cell fractions are harvested at Day 6+3, Day 6+6, and Day 6+9 and assessed for endothelial cell (CD34^+CD31^+, CD34^+CD144^+) and hematopoietic progenitor cell (CD34^+CD43^+, CD34^+CD45^+) phenotypes. FIG. 7C. Fold change of the total percentage of each hemato-endothelial phenotype for SR-1 and TCDD treated hESCs normalized to matched DMSO treated controls. n=4-6, error bars represent SEM, *p<0.05 as compared to DMSO treated controls by student's t-test. N/A: Not applicable due to absence appreciable of CD34^+CD45^+ populations at Day 6+3 time point.
Single-cell adapted hESCs (H9) were maintained on irradiated mouse embryonic fibroblasts (MEF) in ES growth media, as previously described in Ferrell et al. Stem Cells. 2015; 33(4):1130-41. hESCs were allowed to differentiate as spin-embryoid bodies (EBs) as previously described in Ferrell et al. and Ng et al. Nat. Protoc. 2008; 3(5):768-776 (FIG. 7A). In brief, hESCs were plated at 3,000 cells/100 μL in a round-bottom 96-well plate using serum-free BPEL media supplemented with 20 ng/mL BMP4, 40 ng/mL SCF, and 20 ng/mL VEGF (all R&D Systems, Minneapolis, Minn.). Cells were centrifuged to form embryoid bodies (defined as Day 0) and were incubated for 6 additional days (defined as Day 6) to promote mesoderm induction. To differentiate early endothelial and hematopoietic progenitor cells, Day 6 EBs were transferred to pre-gelatinized 24-well plates (approx. 8-16 EBs/well) with BEL media supplemented with 40 ng/mL SCF, 40 ng/mL VEGF, […] thrombopoietin (all R&D Systems, Minneapolis, Minn.), 30 ng/mL IL-3, and 30 ng/mL IL-6 (both PeproTech, Rocky Hill, N.J.). To modulate AHR activity, EBs were treated at Day 6+0 with DMSO, 1 μM SR-1 (Cellagen Technologies, San Diego, Calif.), or 10 nM 2,3,7,8-tetrachlorodibenzo-p-dioxin (TCDD) (Sigma-Aldrich, St. Louis, Mo.). Media was exchanged every 3 days with small molecule and cytokine supplementation. At indicated time points, non-adherent cell fractions were collected and saved while the remaining adherent fractions were treated with 0.05% trypsin containing 2% chicken serum. Adherent cells were combined with the non-adherent fractions for analysis, unless otherwise stated.
The following additional antibodies were used (all anti-human): LFA-1 (CD11a/CD18)-APC-R700 (BD Biosciences), CD31-APC (eBioscience), CD33-APC (BD Biosciences), CD34-PECy7 (BD Biosciences), CD34-APC (BD Biosciences), CD41a-APC (BD Biosciences), CD43-APC (BD Biosciences), CD45-APC (BD Biosciences), CD56-PECy7 (BD Biosciences), CD56-BV421 (BD Biosciences), CD94-PerCP-Cy5.5 (BD Biosciences), CD117-PECy7 (BD Biosciences), CD117-APC (eBiosciences), CD144-APC (eBioscience). Samples were analyzed on either an LSRFortessa or LSRII flow cytometer (BD Biosciences). Gating was set relative to isotype controls of identical fluorophores. Data from flow cytometry was analyzed using FlowJo software (Treestar, Ashland, Oreg.).

[1] = system: non-adherent hematopoietic fractions of differentiating hESC-derived cells; experiment: qRT-PCR of hematopoietic transcriptional regulators; assay type: cell-based, human
Description: FIG. 9A. Non-adherent hematopoietic progenitor cells derived from hESCs differentiated in the presence of SR-1, TCDD, or DMSO controls were harvested at Day 6+5 and seeded at 50,000 cells/dish in a standard methylcellulose colony-forming unit assay (CFU). Colonies were counted for each treatment group following 2 weeks of culture and scored for the following morphological subsets: BFU-E: burst-forming unit-erythroid; CFU-E: colony-forming unit-erythroid; CFU-GM: colony-forming unit-granulocyte, macrophage, CFU-M: colony-forming unit-macrophage; CFU-GEMM: colony-forming unit-granulocyte, erythroid, macrophage, megakaryocyte. n=3, error bars represent SEM of the total number of colonies/50,000 cells seeded, *p<0.05 as assessed with one-way ANOVA+Tukey-Kramer multiple comparisons post-hoc test. FIG. 9B. Non-adherent hematopoietic progenitor cells derived from hESCs differentiated in the presence of SR-1, TCDD, or DMSO controls were harvested at Day 6+3, Day 6+6, and Day 6+9 time points and probed for gene expression by quantitative real-time PCR (qRT-PCR). For each gene, Ct values were normalized to GAPDH at each time point and data is presented as relative fold-change to DMSO treated controls. n=3, error bars represent SEM, *p<0.05, **p<0.01 using student's t-test.
Non-adherent cell fractions were harvested as previously described in the main text. Total RNA was harvested using the Qiashredder tissue homogenizer kit (Qiagen, Valencia, Calif.) with RNAeasy Mini Kit. RNA concentration and purity was assessed using a NanoDrop 2000 (ThermoFisher Scientific) spectrophotometer and subsequently revere transcribed with a SensiFAST cDNA Synthesis Kit (Bioline, Taunton, Mass.). qPCR was performed using the All-in-One qPCR Mix (GeneCopoeia, Rockville, Md.) and cDNA was used at 50 ng/uL per reaction for qRT-PCR using gene specific human primer pairs (Table 1). qPCR reactions were run on an StepOnePlus Real-Time PCR System thermocycler (ThermoFisher Scientific) in either technical duplicate or triplicate. Ct values were normalized to a GAPDH housekeeper for each sample. Data were then normalized relative to controls using the 2̂-(ΔΔCt) method.

| Structure (SMILES) | total percentage of CD34+CD31+ cells, fold vs DMSO controls (hESCs (H9); Day 6+3, 1 μM SR-1) [fold] | total percentage of CD34+CD144+ cells, fold vs DMSO controls (hESCs (H9); Day 6+3, 1 μM SR-1) [fold] | total percentage of CD34+CD31+ hemato-endothelial cells, fold vs DMSO controls (hESCs (H9); Day 6+6, 1 μM SR-1) [fold] | total percentage of CD34+CD43+ hematopoietic progenitor cells, fold vs DMSO controls (hESCs (H9); Day 6+6, 1 μM SR-1) [fold] | CD34+CD45+ hematopoietic progenitor cells, fold change normalized to DMSO (hESCs (H9); Day 6+9, 10 nM TCDD) | expression of GATA1, fold relative to DMSO controls ([1]; Day 6+3) [fold] | expression of GATA2, fold relative to DMSO controls ([1]; Day 6+3) [fold] | mean GATA2:GATA1 ([1]; Day 6+3, SR-1 treatment) | expression of CMYB ([1]; all time points) | total percent of CD34+CD31+ cells, fold change normalized to DMSO (hESCs (H9); Day 6+9, 10 nM TCDD) | total percent of CD34+CD43+ cells, fold change normalized to DMSO (hESCs (H9); Day 6+9, 10 nM TCDD) | total percent of CD34+CD144+ cells, fold change normalized to DMSO (hESCs (H9); Day 6+9, 10 nM TCDD) | total percent of CD34− hematopoietic cells (hESCs (H9); Day 6+9, 10 nM TCDD) | expression of GATA2, fold relative to DMSO controls ([1]; Day 6+6) [fold] | expression of PU.1 ([1]; each time point (Day 6+3, 6+6, 6+9)) |
| --- | --- | --- | --- | --- | --- | --- | --- | --- | --- | --- | --- | --- | --- | --- | --- |
| CC(C)n1cnc2c(NCCc3ccc(O)cc3)nc(-c3csc4ccccc34)nc21 [SR-1, StemReginin-1] | 1.58±0.28 | 1.71±0.22 | 1.62±0.12 | 1.36±0.12 | 1.40±0.11 | 2.58±0.40 | 6.85±0.74 | 2.67 | significant increase |  |  |  |  |  |  |
| Clc1cc2c(cc1Cl)Oc1cc(Cl)c(Cl)cc1O2 [TCDD, 2,3,7,8-tetrachlorodibenzo-p-dioxin] |  |  |  |  | 0.44±0.06 | 0.31±0.08 |  |  |  | 0.49±0.06 | 0.67±0.09 | 0.33±0.13 | increase | 0.37±0.13 | reciprocal expression |
